# Test results reported in ChEMBL document CHEMBL1125767, “New 5H-pyridazino[4,5-b]indole derivatives. Synthesis and studies as inhibitors of blood platelet aggregation and inotropics” (J Med Chem, 1991).
# Key:
# [1] = tested on: PDE4 (Canis lupus familiaris); test: Inhibition of canine heart Phosphodiesterase 4 at 50 uM
# [2] = tested on: PDE4 (Canis lupus familiaris); test: Inhibition of canine heart Phosphodiesterase 4 at 100 uM
# [3] = species: Cavia porcellus; test: (§1) Inhibition of ADP-induced platelet aggregation in guinea pig whole blood at 5*10e-4 M; format: functional
# [4] = species: Cavia porcellus; test: (§2) Inhibition of arachidonic acid induced platelet aggregation in guinea pig whole blood at 5*10e-4 M; format: functional
# [5] = species: Cavia porcellus; test: Inhibition of arachidonic acid induced platelet aggregation in guinea pig whole blood at 10e-4 M; format: functional
# [6] = species: Homo sapiens; test: Inhibition of arachidinoc acid induced platelet in human platelet rich plasma at 7.5*10e-5 M.; format: functional
# [7] = species: Homo sapiens; test: Inhibition of ADP-induced platelet aggregation in human platelet rich plasma at 7.5*10e-5 M; format: functional
# [8] = species: Homo sapiens; test: Inhibition of arachidinoc acid induced platelet in human platelet rich plasma at 5*10e-5 M; format: functional
# [9] = species: Cavia porcellus; test: Inhibition of ADP-induced platelet aggregation in guinea pig whole blood at 5*10e-5 M; format: functional
# [10] = species: Homo sapiens; test: Inhibition of collagen induced platelet aggregation in human platelet rich plasma at 7.5*10e-5 M; format: functional
# [11] = species: Cavia porcellus; test: Inhibition of arachidonic acid induced platelet aggregation in guinea pig whole blood at 5*10e-5 M; format: functional
# [12] = species: Homo sapiens; test: Inhibition of adrenaline induced platelet aggregation in human platelet rich plasma at 5*10e-5 M; format: functional
# [13] = biological target: PDE4 (Canis lupus familiaris); test: Inhibition of canine heart phosphodiesterase 4
# [14] = species: Homo sapiens; test: Inhibition of collagen induced platelet aggregation in human platelet rich plasma at 5*10e-5 M; format: functional
# [15] = species: Homo sapiens; test: Inhibition of adrenaline induced platelet aggregation in human platelet rich plasma at 7.5*10e-5 M; format: functional
# [16] = species: Cavia porcellus; test: Inhibition of ADP-induced platelet aggregation in guinea pig whole blood at 10e-4 M; format: functional
# [17] = species: Homo sapiens; test: Inhibition of ADP-induced platelet aggregation in human platelet rich plasma at 5*10e-5 M; format: functional
# [18] = In vitro inhibitory activity against prostaglandin E2 in platelet aggregation induced by arachidonic acid at 5*10e-4 M concentration.; format: functional
# [19] = biological target: T1, Thromboxane-A synthase (Homo sapiens) (UniProt P24557); test: In vitro inhibitory activity against thromboxane B2 synthetase in platelet aggregation induced by arachidonic acid at 5*10e-4 M concentration; (Change from basal value); format: functional
# T1 sequence (whole entry): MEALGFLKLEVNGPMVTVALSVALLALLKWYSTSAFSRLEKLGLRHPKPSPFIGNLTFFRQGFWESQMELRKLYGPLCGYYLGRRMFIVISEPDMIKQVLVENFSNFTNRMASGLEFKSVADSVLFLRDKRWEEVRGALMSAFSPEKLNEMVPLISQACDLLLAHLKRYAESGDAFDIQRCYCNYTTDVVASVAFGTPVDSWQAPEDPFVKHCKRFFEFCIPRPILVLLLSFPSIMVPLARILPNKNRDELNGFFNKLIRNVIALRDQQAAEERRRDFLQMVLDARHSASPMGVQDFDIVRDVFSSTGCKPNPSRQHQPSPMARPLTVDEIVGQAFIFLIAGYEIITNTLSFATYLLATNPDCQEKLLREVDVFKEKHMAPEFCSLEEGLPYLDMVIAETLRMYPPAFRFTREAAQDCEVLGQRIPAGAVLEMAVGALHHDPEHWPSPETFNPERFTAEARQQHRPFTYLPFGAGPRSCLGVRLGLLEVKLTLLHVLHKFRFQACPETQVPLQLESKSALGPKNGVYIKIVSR
# [20] = biological target: T1, Thromboxane-A synthase (Homo sapiens); test: In vitro inhibitory activity against prostaglandin E2 in platelet aggregation induced by arachidonic acid at 10e-4 M concentration; (Change from basal value); format: functional
# [21] = biological target: T1, Thromboxane-A synthase (Homo sapiens); test: In vitro inhibitory activity against prostaglandin E2 in platelet aggregation induced by arachidonic acid at 5*10e-4 M concentration; (Change from basal value); format: functional
# [22] = biological target: T1, Thromboxane-A synthase (Homo sapiens); test: In vitro inhibitory activity against thromboxane B2 synthetase in platelet aggregation induced by arachidonic acid at 10e-4 M concentration; (Change from basal value); format: functional
# [23] = In vitro inhibitory activity against prostaglandin E2 in platelet aggregation induced by arachidonic acid at 10e-4 M concentration.; format: functional
# [24] = species: Homo sapiens; test: Inhibition of arachidonic acid induced platelet aggregation in human platelet rich plasma at 10e-5 M; format: functional
# [25] = species: Homo sapiens; test: Inhibition of ADP-induced platelet aggregation in human platelet rich plasma at 10e-5 M; format: functional
# [26] = species: Homo sapiens; test: Inhibition of adrenaline induced platelet aggregation in human platelet rich plasma at 10e-5 M; format: functional
# [27] = species: Cavia porcellus; test: Inhibition of arachidonic acid induced platelet aggregation in guinea pig whole blood at 10e-5 M; format: functional
# [28] = species: Homo sapiens; test: Inhibition of collagen induced platelet aggregation in human platelet rich plasma at 10e-5 M; format: functional
# [29] = species: Homo sapiens; test: Inhibition of arachidonic acid induced platelet aggregation in human platelet rich plasma at 5*10e-5 M; format: functional
# [30] = species: Homo sapiens; test: nhibition of ADP-induced platelet aggregation in human platelet rich plasma at 5*10e-5 M; format: functional
# [31] = as §1; format: functional, Cavia porcellus
# [32] = biological target: T1, Thromboxane-A synthase (Homo sapiens); test: In vitro inhibitory activity against thromboxane B2 synthetase in platelet aggregation induced by arachidonic acid at 5*10e-3 M concentration; (Change from basal value); format: functional
# [33] = species: Cavia porcellus; test: Inhibition of arachidonic acid induced platelet aggregation in guinea pig whole blood at 5*10e-3 M; format: functional
# [34] = species: Cavia porcellus; test: Inhibition of ADP-induced platelet aggregation in guinea pig whole blood at 5*10e-3 M; format: functional
# [35] = as §2; format: functional, Cavia porcellus
# [36] = biological target: T1, Thromboxane-A synthase (Homo sapiens); test: In vitro inhibitory activity against prostaglandin E2 in platelet aggregation induced by arachidonic acid at 5*10e-3 M concentration; (Change from basal value); format: functional
# [37] = species: Homo sapiens; test: Inhibition of arachidinoc acid induced platelet in human platelet rich plasma at 10e-5 M; format: functional
# [38] = species: Cavia porcellus; test: Inhibition of arachidonic acid induced platelet aggregation in guinea pig whole blood at 10e-6 M; format: functional
# [39] = species: Cavia porcellus; test: Inhibition of arachidonic acid induced platelet aggregation in guinea pig whole blood at 5*10e-6 M; format: functional
# [40] = In vitro inhibitory activity against prostaglandin E2 in platelet aggregation induced by arachidonic acid at 5*10e-5 M concentration.; format: functional
# [41] = species: Cavia porcellus; test: Inhibition of arachidonic acid induced platelet aggregation in guinea pig whole blood at 5*10e-4 M (not determined); format: functional
smiles,measurement,setting,value
Cc1cc(C)n(-c2[nH]nc(N3CCN(c4ccc(F)cc4)CC3)c3c4ccccc4nc2-3)n1,inhibition,[1],2.52%
COc1ccc(N2CCN(c3[nH]nc(-n4nc(C)cc4C)c4nc5ccccc5c3-4)CC2)cc1,inhibition,[2],4.8%
COc1ccccc1N1CCN(c2[nH]nc(-n3nc(C)cc3C)c3nc4ccccc4c2-3)CC1,inhibition,[1],11.9%
Nc1cc(-c2ccncc2)c[nH]c1=O [INAMRINONE],Inhibition,[3],49%
same,Inhibition,[4],100%
NNc1nncc2ccccc12 [HYDRALAZINE],Inhibition,[3],0%
same,Inhibition,[4],20%
Cc1cc(C)n(-c2[nH]nc(NN)c3c4ccccc4nc2-3)n1.Cl,inhibition at 100 µM,[5],83%
same,Inhibition,[6],6.5%
same,Inhibition,[3],90%
same,Inhibition,[4],97%
same,Inhibition,[7],23%
same,Inhibition,[8],4.8%
same,Inhibition,[9],0%
same,Inhibition,[10],78.4%
same,Inhibition,[11],0%
same,Inhibition,[12],0%
same,IC50,[13],348 µM
same,Inhibition,[14],0%
same,Inhibition,[15],22%
same,inhibition at 100 µM,[16],23%
same,Inhibition,[17],22%
same,Inhibition,[18],11.8%
c1ccc2c(c1)[nH]c1c(-c3ncc[nH]3)nnc(-c3ncc[nH]3)c12,Thromboxane B2 level,[19],-31%
same,inhibition at 100 µM,[5],100%
same,Inhibition,[3],24.25%
same,Prostaglandin E2 level,[20],518%
same,Inhibition,[4],98.88%
same,Prostaglandin E2 level,[21],119%
same,Thromboxane B2 level,[22],-61%
same,inhibition at 100 µM,[16],23.2%
Cc1cc(C)n(-c2[nH]nc(N3CCOCC3)c3c4ccccc4nc2-3)n1,inhibition at 100 µM,[5],99.4%
same,inhibition at 100 µM,[23],-80%
same,Inhibition,[3],47.83%
same,Inhibition,[4],100%
same,inhibition at 10 µM,[24],3.35%
same,Inhibition,[11],59.83%
same,inhibition at 10 µM,[25],24.8%
same,inhibition at 10 µM,[26],0%
same,inhibition at 10 µM,[27],0%
same,inhibition at 10 µM,[28],36.6%
same,inhibition,[2],38%
same,inhibition at 100 µM,[16],0%
same,Inhibition,[18],-78%
Cc1cc(C)n(-c2[nH]nc(NN)c3c4ccccc4nc2-3)n1 [listing 1 of 2 here],inhibition,[2],9.39%
COc1ccccc1N1CCN(c2n[nH]c(N3CCN(c4ccccc4OC)CC3)c3c4ccccc4nc2-3)CC1,inhibition at 100 µM,[5],26.6%
same,Inhibition,[3],64%
same,Inhibition,[4],56.13%
same,inhibition,[2],7.52%
same,inhibition at 100 µM,[16],0%
CNNc1[nH]nc(-n2nc(C)cc2C)c2nc3ccccc3c1-2,Inhibition,[29],0%
same,inhibition at 100 µM,[5],7.86%
same,Inhibition,[3],33.8%
same,Inhibition,[4],100%
same,Inhibition,[30],0%
same,Inhibition,[12],0%
same,IC50,[13],118 µM
same,Inhibition,[14],0%
same,inhibition,[2],44.8%
same,inhibition at 100 µM,[16],0%
same,Inhibition,[18],-72.8%
NNC(=O)c1n[nH]c2c3nc4ccccc4c-3c(NN)nn12 [listing 1 of 3 here],IC50,[13],121 µM
CC(=O)Oc1ccccc1C(=O)O [ASPIRIN],Inhibition,[31],100%
same,Thromboxane B2 level,[32],-100%
same,Inhibition,[33],30%
same,Inhibition,[34],15%
same,inhibition at 10 µM,[25],20%
same,inhibition at 10 µM,[26],38.3%
same,inhibition at 10 µM,[28],52%
same,Inhibition,[35],100%
same,Prostaglandin E2 level,[36],-100%
same,inhibition at 10 µM,[37],90%
CCOC(=O)c1n[nH]c2c3nc4ccccc4c-3c(Cl)nn12,Inhibition,[3],57.63%
same,Inhibition,[4],13.4%
same,inhibition,[2],37%
Cc1cc(C)n(-c2[nH]nc(Cl)c3c4ccccc4nc2-3)n1,Inhibition,[3],31%
same,Inhibition,[4],46.17%
Cc1cc(C)n(-c2[nH]nc(N3CCCCC3)c3c4ccccc4nc2-3)n1,inhibition at 100 µM,[5],99.4%
same,inhibition at 100 µM,[23],-91%
same,Inhibition,[3],64.83%
same,Inhibition,[4],100%
same,inhibition at 1 µM,[38],0%
same,inhibition at 10 µM,[24],83.8%
same,Inhibition,[11],99.5%
same,Inhibition,[39],26.38%
same,Inhibition,[40],-100%
same,inhibition at 10 µM,[25],23.9%
same,inhibition at 10 µM,[26],42.5%
same,inhibition at 10 µM,[27],67.5%
same,inhibition at 10 µM,[28],0%
same,inhibition,[2],32.8%
same,inhibition at 100 µM,[16],0%
same,Inhibition,[18],-80.4%
NNC(=O)c1n[nH]c2c3nc4ccccc4c-3c(NN)nn12 [listing 2 of 3 here],inhibition at 100 µM,[5],38.3%
same,inhibition at 100 µM,[16],8.25%
Cc1cc(C)n(-c2n[nH]c(-n3nc(C)cc3C)c3c4ccccc4nc2-3)n1,inhibition,[2],29.5%
Cc1cc(C)n(-c2n[nH]c(N3CCN(C)CC3)c3c4ccccc4nc2-3)n1,Inhibition,[3],89.25%
same,Inhibition,[4],78.25%
same,inhibition,[2],33.4%
CCOc1ccccc1N1CCN(c2[nH]nc(-n3nc(C)cc3C)c3nc4ccccc4c2-3)CC1,inhibition,[1],17.6%
NNC(=O)c1n[nH]c2c3nc4ccccc4c-3c(NN)nn12 [listing 3 of 3 here],inhibition,[2],55.9%
Cc1cc(C)n(-c2[nH]nc(NN)c3c4ccccc4nc2-3)n1 [listing 2 of 2 here],Inhibition,[3],67.83%
same,Inhibition,[41],92.14%
same,Inhibition,[18],96%
